Laboratory results: US20240016942A1, “STAT DEGRADERS AND USES THEREOF” (Kymera Therapeutics, Inc., priority 2020, published 2024)

These molecules were tested against T1, STAT3 (Homo sapiens, UniProt P40763) (assay: STAT3 HiBiT degradation assay (Nano-Glo HiBiT lytic detection) in transfected A549 cells). Conditions: 24 h compound incubation, read-out: STAT3 HiBIT A549 degradation 24 h: Average external-Abs DC50.
T1 construct: expressed in transfected cells; host or cells: A549
Type: cell-based
Method: Example 1. HiBiT Assay Protocol
Compound preparation and Cell seeding: The transfected A549 cells were harvested from dish into cell culture medium and cell numbers counted. Cells were diluted with culture medium to the desired density and 30 μL of cell suspension (about 2000 cells/well) were added into each well of a 384-well cell culture plate as designated and transferred into 37° C. 5% CO2 incubator for 24 h. Compounds were dissolved to 10 mM stock solution and 12 μL of the stock solution was transferred to a 384 LDV-plate. 3 fold, 10-point dilution was performed by transferring 4 μL compound into 8 μL DMSO using a TECAN (EVO200) liquid handler. 30 μl of diluted compound from compound source plate was transferred into the cell plate as designated by using Echo550 and transferred into 37° C. 5% CO2 incubator for 24 h.
Detection: Plates were removed from incubators and equilibrated at room temperature for 15 minutes. Nano-Glo Hibit Lytic Detection reagent (Promega Cat #N3040) was thawed and equilibrated to room temperature before the experiment. 30 μL of Nano-Glo Hibit Lytic Detection reagent was added into each well to be detected. The plates were held at room temperature for 10 min followed by reading on EnSpire.
Data analysis: The remaining activity was calculated following the formula: Remaining Activity (%)=100%×(Lumsample−LumNC)/(LumPC−LumNC). Calculate the IC50 by fitting the curve using Xlfit (v5.3.1.3), equation 201: fit=(A+((B−A)/(1+((x/C)^D)))); A: Botton; B: Top; C: IC50; and D: Slope.
The letter codes for STAT3 DC50 include: A (<0.01 μM), B (0.01-0.1 μM), C (0.1-1.0 μM), and D (>1.0 μM).

T1 sequence (P40763 whole entry): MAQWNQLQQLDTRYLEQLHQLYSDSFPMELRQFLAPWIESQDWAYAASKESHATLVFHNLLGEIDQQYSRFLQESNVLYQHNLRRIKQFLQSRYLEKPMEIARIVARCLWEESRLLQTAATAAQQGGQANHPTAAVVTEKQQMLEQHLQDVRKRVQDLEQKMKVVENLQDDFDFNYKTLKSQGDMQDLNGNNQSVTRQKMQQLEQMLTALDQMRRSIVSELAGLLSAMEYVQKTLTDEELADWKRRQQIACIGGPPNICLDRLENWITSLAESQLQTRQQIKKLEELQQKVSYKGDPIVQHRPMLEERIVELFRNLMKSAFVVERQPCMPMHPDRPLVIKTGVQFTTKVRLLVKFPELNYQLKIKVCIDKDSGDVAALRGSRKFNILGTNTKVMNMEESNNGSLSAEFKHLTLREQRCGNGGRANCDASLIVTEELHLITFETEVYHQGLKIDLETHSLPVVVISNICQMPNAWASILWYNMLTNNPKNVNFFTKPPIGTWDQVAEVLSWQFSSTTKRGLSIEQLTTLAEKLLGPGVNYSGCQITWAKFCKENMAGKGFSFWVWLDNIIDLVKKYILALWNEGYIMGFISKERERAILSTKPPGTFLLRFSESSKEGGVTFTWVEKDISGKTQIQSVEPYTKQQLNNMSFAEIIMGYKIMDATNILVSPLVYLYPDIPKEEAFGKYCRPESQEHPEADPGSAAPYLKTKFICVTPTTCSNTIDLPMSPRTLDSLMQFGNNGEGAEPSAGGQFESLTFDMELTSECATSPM

| Structure (SMILES) | DC50 [nM] |
| --- | --- |
| Cc1ncsc1-c1ccc([C@H](C)NC(=O)[C@@H]2C[C@@H](O)CN2C(=O)[C@@H](NC(=O)CCCCc2cccc(OC[C@H](CCC(N)=O)NC(=O)[C@@H]3CC[C@@H]4CCCC[C@H](NC(=O)c5cc6cc(C(=O)P(=O)(O)O)ccc6[nH]5)C(=O)N43)c2Cl)C(C)(C)C)cc1 [I-1] | < 10 |
| Cc1ncsc1-c1ccc([C@H](C)NC(=O)[C@@H]2C[C@@H](O)CN2C(=O)[C@@H](NC(=O)CCCc2cccc(OC[C@H](CCC(N)=O)NC(=O)[C@@H]3CC[C@@H]4CCCC[C@H](NC(=O)c5cc6cc(C(=O)P(=O)(O)O)ccc6[nH]5)C(=O)N43)c2Cl)C(C)(C)C)cc1 [I-2] | < 10 |
| Cc1ncsc1-c1ccc([C@H](C)NC(=O)[C@@H]2C[C@@H](O)CN2C(=O)[C@@H](NC(=O)CCCCc2cccc(OC[C@H](CCC(N)=O)NC(=O)[C@@H]3CC[C@@H]4CCCC[C@H](NC(=O)c5cc6cc(C(=O)P(=O)(O)O)ccc6[nH]5)C(=O)N43)c2F)C(C)(C)C)cc1 [I-3] | < 10 |
| Cc1cc(CCCCCC(=O)N[C@H](C(=O)N2C[C@H](O)C[C@H]2C(=O)N[C@@H](C)c2ccc(-c3scnc3C)cc2)C(C)(C)C)c(F)c(OC[C@H](CCC(N)=O)NC(=O)[C@@H]2CC[C@@H]3CCCC[C@H](NC(=O)c4cc5cc(C(=O)P(=O)(O)O)ccc5[nH]4)C(=O)N32)c1 [I-4] | < 10 |
| Cc1cc(CCCC(=O)N[C@H](C(=O)N2C[C@H](O)C[C@H]2C(=O)N[C@@H](C)c2ccc(-c3scnc3C)cc2)C(C)(C)C)c(Cl)c(OC[C@H](CCC(N)=O)NC(=O)[C@@H]2CC[C@@H]3CCCC[C@H](NC(=O)c4cc5cc(C(=O)P(=O)(O)O)ccc5[nH]4)C(=O)N32)c1 [I-5] | < 10 |
| Cc1ncsc1-c1ccc([C@H](C)NC(=O)[C@@H]2C[C@@H](O)CN2C(=O)[C@@H](NC(=O)CCCCCc2cccc(OC[C@H](CCC(N)=O)NC(=O)[C@@H]3CC[C@@H]4CCCC[C@H](NC(=O)c5cc6cc(C(=O)P(=O)(O)O)ccc6[nH]5)C(=O)N43)c2F)C(C)(C)C)cc1 [I-6] | 10 to 100 |
| Cc1cc(CCCC(=O)N[C@H](C(=O)N2C[C@H](O)C[C@H]2C(=O)N[C@@H](C)c2ccc(-c3scnc3C)cc2)C(C)(C)C)c(F)c(OC[C@H](CCC(N)=O)NC(=O)[C@@H]2CC[C@@H]3CCCC[C@H](NC(=O)c4cc5cc(C(=O)P(=O)(O)O)ccc5[nH]4)C(=O)N32)c1 [I-7] | < 10 |
| Cc1ncsc1-c1ccc([C@H](C)NC(=O)[C@@H]2C[C@@H](O)CN2C(=O)[C@@H](NC(=O)CCCc2cc(F)cc(OC[C@H](CCC(N)=O)NC(=O)[C@@H]3CC[C@@H]4CCCC[C@H](NC(=O)c5cc6cc(C(=O)P(=O)(O)O)ccc6[nH]5)C(=O)N43)c2Cl)C(C)(C)C)cc1 [I-8] | < 10 |
| Cc1ncsc1-c1ccc([C@H](C)NC(=O)[C@@H]2C[C@@H](O)CN2C(=O)[C@@H](NC(=O)CCCc2cccc(OC[C@H](CCC(N)=O)NC(=O)[C@@H]3CC[C@@H]4CCCC[C@H](NC(=O)c5cc6cc(C(=O)P(=O)(O)O)ccc6[nH]5)C(=O)N43)c2F)C(C)(C)C)cc1 [I-9] | < 10 |
| Cc1ncsc1-c1ccc(C2(NC(=O)[C@@H]3C[C@@H](O)CN3C(=O)[C@@H](NC(=O)CCCCc3cccc(OC[C@H](CCC(N)=O)NC(=O)[C@@H]4CC[C@@H]5CCCC[C@H](NC(=O)c6cc7cc(C(=O)P(=O)(O)O)ccc7[nH]6)C(=O)N54)c3Cl)C(C)(C)C)CC2)cc1 [I-10] | < 10 |
| Cc1ncsc1-c1ccc([C@H](C)NC(=O)[C@@H]2C[C@@H](O)CN2C(=O)[C@@H](NC(=O)CCCc2cccc(OC[C@H](CCC(N)=O)NC(=O)[C@@H]3CCCN3C(=O)[C@H](CO)NC(=O)c3cc4cc(C(=O)P(=O)(O)O)ccc4[nH]3)c2Cl)C(C)(C)C)cc1 [I-11] | 10 to 100 |
| Cc1ncsc1-c1ccc([C@H](C)NC(=O)[C@@H]2C[C@@H](O)CN2C(=O)[C@@H](NC(=O)CCCc2cccc(OC[C@H](CCC(N)=O)NC(=O)[C@@H]3CCCN3C(=O)[C@@H](NC(=O)c3cc4cc(C(=O)P(=O)(O)O)ccc4[nH]3)C3CCCCC3)c2Cl)C(C)(C)C)cc1 [I-12] | 10 to 100 |
| Cc1ncsc1-c1ccc([C@H](C)NC(=O)[C@@H]2C[C@@H](O)CN2C(=O)[C@@H](NC(=O)CCCc2cccc(OC[C@H](CCC(N)=O)NC(=O)[C@@H]3CCCN3C(=O)CNC(=O)c3cc4cc(C(=O)P(=O)(O)O)ccc4[nH]3)c2Cl)C(C)(C)C)cc1 [I-13] | 10 to 100 |
| Cc1ncsc1-c1ccc([C@H](C)NC(=O)[C@@H]2C[C@@H](O)CN2C(=O)[C@@H](NC(=O)CCCc2cccc(OC[C@H](CCC(N)=O)NC(=O)[C@@H]3CCCN3C(=O)[C@@H](NC(=O)c3cc4cc(C(=O)P(=O)(O)O)ccc4[nH]3)C(C)(C)C)c2Cl)C(C)(C)C)cc1 [I-14] | 100 to 1000 |
| Cc1ncsc1-c1ccc([C@H](C)NC(=O)[C@@H]2C[C@@H](O)CN2C(=O)[C@@H](NC(=O)CCCc2cccc(OC[C@H](CCC(N)=O)NC(=O)[C@@H]3CCCN3C(=O)[C@@H](NC(=O)c3cc4cc(C(=O)P(=O)(O)O)ccc4[nH]3)C(C)C)c2Cl)C(C)(C)C)cc1 [I-15, 2-[[(2S)-1-[(2S)-2-[[(2S)-4-carbamoyl-1-[2-chloro-3-(3-[[(2S)-1-[(2S,4R)-4-hydroxy-2-[[(1S)-1-[4-(4-methyl-1,3-thiazol-5-yl)phenyl]ethyl]carbamoyl]pyrrolidin-1-yl]-3,3-dimethyl-1-oxobutan-2-yl]carbamoyl]propyl)phenoxy]butan-2-yl]carbamoyl]pyrrolidin-1-yl]-3-methyl-1-oxobutan-2-yl]carbamoyl]-1H-indole-5-carbonylphosphonic acid] | 10 to 100 |
| CNC(=O)[C@@H]1Cc2cc(CCCCCCc3ccc4c(c3)n(C)c(=O)n4C3CCC(=O)NC3=O)cc3c2N1C(=O)[C@@H](NC(=O)c1cc2cc(C(=O)P(=O)(O)O)ccc2[nH]1)CC3 (stereo partly drawn) [I-20] | > 1000 |
| C[C@H](CCC(=O)N(C)C)NC(=O)[C@@H]1Cc2cc(CCCCCCc3ccc4c(c3)n(C)c(=O)n4C3CCC(=O)NC3=O)cc3c2N1C(=O)[C@@H](NC(=O)c1cc2cc(C(=O)P(=O)(O)O)ccc2[nH]1)CC3 (stereo partly drawn) [I-21] | > 1000 |
| CNC(=O)CC[C@@H](C)NC(=O)[C@@H]1Cc2cc(CCCCCCc3ccc4c(c3)n(C)c(=O)n4C3CCC(=O)NC3=O)cc3c2N1C(=O)[C@@H](NC(=O)c1cc2cc(C(=O)P(=O)(O)O)ccc2[nH]1)CC3 (stereo partly drawn) [I-22] | > 1000 |
| CC(=O)N1CC[C@H]2CC[C@@H](C(=O)N[C@@H](CCC(N)=O)COc3cc(C)cc(CCCCCC(=O)N[C@H](C(=O)N4C[C@@H](O)C[C@H]4C(=O)N[C@@H](C)c4ccc(-c5scnc5C)cc4)C(C)(C)C)c3F)N2C[C@@H](NC(=O)c2cc3cc(C(=O)P(=O)(O)O)ccc3[nH]2)C1 [I-23] | > 1000 |
| CC(=O)N1CC[C@H]2CC[C@@H](C(=O)N[C@H](CCC(N)=O)COc3cccc(CCCCC(=O)N[C@H](C(=O)N4C[C@H](O)C[C@H]4C(=O)N[C@@H](C)c4ccc(-c5scnc5C)cc4)C(C)(C)C)c3Cl)N2C(=O)[C@@H](NC(=O)c2cc3cc(C(=O)P(=O)(O)O)ccc3[nH]2)C1 [I-24] | 100 to 1000 |
| CN(C)C(=O)[C@@H]1Cc2cc(CCCCCCc3ccc4c(c3)n(C)c(=O)n4C3CCC(=O)NC3=O)cc3c2N1C(=O)[C@@H](NC(=O)c1cc2cc(C(=O)P(=O)(O)O)ccc2[nH]1)CC3 (stereo partly drawn) [I-25, 2-[[(2S, 11S)-2-(dimethylcarbamoyl)-6-[6-[1-(2,6-dioxopiperidin-3-yl)-3-methyl-2-oxo-1,3-benzodiazol-5-yl]hexyl]-12-oxo-1-azatricyclo [6.4.1.0^[4, 13]]trideca-4(13), 5,7-trien-11-yl]carbamoyl]-1H-indole-5-carbonylphosphonic acid] | > 1000 |
